Data on 36 molecules can be found in ChEMBL document CHEMBL1149577, “Rational design of 7-arylquinolines as non-competitive metabotropic glutamate receptor subtype 5 antagonists” (Bioorg Med Chem Lett, 2007).

Experiment [1] addresses T1, Metabotropic glutamate receptor 5 (Rattus norvegicus, UniProt P31424). In words: Activity at rat mGlu5 receptor expressed in CHO cells assessed as inhibition of quisqualate-stimulated calcium mobilization by FLIPR assay. The class given is functional, cell-based.
In experiment [2] the test system is Rattus norvegicus. Kind of experiment: Anxiolytic activity in thirsty naive rat assessed as shock episodes at 10 mg/kg, po by Vogel assay relative to control. The class given is functional.
The target in experiment [3] is T1, Metabotropic glutamate receptor 5. In words: Displacement of [3H]MPEP from mGlu5 receptor in rat brain. It counts as tissue-based. On the technique in general: Loss of bound radioactivity is the signal in a displacement assay; it reports binding, not function.

T1 sequence (P31424 whole entry): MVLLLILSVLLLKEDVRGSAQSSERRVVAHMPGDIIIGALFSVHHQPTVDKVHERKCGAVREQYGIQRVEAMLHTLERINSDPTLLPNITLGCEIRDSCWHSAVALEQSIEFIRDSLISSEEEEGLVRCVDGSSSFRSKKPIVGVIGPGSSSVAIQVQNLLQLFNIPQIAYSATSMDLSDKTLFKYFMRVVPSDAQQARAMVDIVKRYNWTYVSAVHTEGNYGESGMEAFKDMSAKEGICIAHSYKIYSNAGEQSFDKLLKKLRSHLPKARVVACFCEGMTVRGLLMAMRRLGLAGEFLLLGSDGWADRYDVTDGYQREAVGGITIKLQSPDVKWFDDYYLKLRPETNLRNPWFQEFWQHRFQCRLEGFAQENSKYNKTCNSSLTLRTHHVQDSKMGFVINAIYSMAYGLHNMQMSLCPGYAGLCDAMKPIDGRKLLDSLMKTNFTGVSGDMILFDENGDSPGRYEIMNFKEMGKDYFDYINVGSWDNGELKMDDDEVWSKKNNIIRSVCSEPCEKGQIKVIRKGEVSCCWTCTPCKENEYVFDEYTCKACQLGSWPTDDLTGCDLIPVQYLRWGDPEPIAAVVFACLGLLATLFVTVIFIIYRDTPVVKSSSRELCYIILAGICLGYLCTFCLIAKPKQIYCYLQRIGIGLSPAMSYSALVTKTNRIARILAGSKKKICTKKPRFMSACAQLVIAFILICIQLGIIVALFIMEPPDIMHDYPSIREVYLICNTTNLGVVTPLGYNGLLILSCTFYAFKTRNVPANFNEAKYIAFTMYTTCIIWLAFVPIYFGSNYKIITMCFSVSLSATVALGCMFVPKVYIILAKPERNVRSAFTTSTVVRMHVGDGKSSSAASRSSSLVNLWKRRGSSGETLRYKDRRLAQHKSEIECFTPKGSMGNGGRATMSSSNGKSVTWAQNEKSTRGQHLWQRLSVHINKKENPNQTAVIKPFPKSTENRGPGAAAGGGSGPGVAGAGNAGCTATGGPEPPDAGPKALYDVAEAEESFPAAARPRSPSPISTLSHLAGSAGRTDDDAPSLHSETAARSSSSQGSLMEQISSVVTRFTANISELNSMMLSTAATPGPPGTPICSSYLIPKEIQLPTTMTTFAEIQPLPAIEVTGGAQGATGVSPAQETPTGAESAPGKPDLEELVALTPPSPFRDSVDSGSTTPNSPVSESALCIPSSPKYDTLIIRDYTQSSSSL

A word on the IC50: it is the concentration that gives 50% inhibition. What is called Ki is the dissociation constant of the complex between target and ligand, obtained from inhibition or displacement. A lower Ki goes with a stronger hold on the target. With `Cc1ccc2ccc(-c3cc(F)cc(C#N)c3)cc2n1`, in experiment [1], the IC50 was 0.8 nM. The Activity in experiment [2] is 100%. Besides, in experiment [3], the Ki was 22 nM. With `COc1ccc(-c2ccc3ccc(C)nc3c2)cc1`, in experiment [1], the IC50 amounted to 16000 nM. With `Cc1ccc2ccc(-c3cc(C#N)cc(C#N)c3)cc2n1`, in experiment [1], the IC50 came out at 2 nM.

Consider `Cc1ccc2ccc(-c3cc(C#N)cc(OC(C)C)c3)cc2n1`, for which the IC50 in experiment [1] came out at 310 nM.

Turning to `Cc1ccc2ccc(-c3cccc(Cl)c3)cc2n1`, the IC50 in experiment [1] was 14000 nM.

Take `COCc1cc(C#N)cc(-c2ccc3ccc(C)nc3c2)c1`: the IC50 in experiment [1] stood at 2 nM. In the case of `Cc1ccc2ccc(-c3cccc(C(F)(F)F)c3)cc2n1`, the IC50 in experiment [1] is over 10000 nM. With `Cc1ccc2ccc(-c3cc(O)cc(C#N)c3)cc2n1`, the IC50 in experiment [1] worked out at 360 nM. Same read-out and setting: the same measure for `Cc1ccc2ccc(-c3cccc(C(N)=O)c3)cc2n1`: over 10000 nM. The same measure, in the same setting: the same measure for `COc1ccccc1-c1ccc2ccc(C)nc2c1`: 4200 nM; for `Cc1ccc2ccc(-c3cncc(C#N)c3)cc2n1`: 23 nM.

Turning to `COCCOc1cc(C#N)cc(-c2ccc3ccc(C)nc3c2)c1`, in experiment [1], the IC50 is 82 nM. `Cc1ccc2ccc(-c3cc(Br)cc(C#N)c3)cc2n1`: the IC50 in experiment [1] stood at 13 nM. On to `Cc1cccc(-c2ccc3ccc(C)nc3c2)c1`, for which, in experiment [1], the IC50 stood at 3400 nM. For the molecule `COc1cc(C#N)cc(-c2ccc3ccc(C)nc3c2)c1`, in experiment [1], the concentration for half-maximal inhibition (IC50) came out at 2.4 nM. On to `Cc1ccc2ccc(-c3cccc(F)c3)cc2n1`, for which the IC50 in experiment [1] was 1800 nM. Turning to `CCOc1cc(C#N)cc(-c2ccc3ccc(C)nc3c2)c1`, the IC50 in experiment [1] amounted to 17 nM. As for `CCSc1cc(C#N)cc(-c2ccc3ccc(C)nc3c2)c1`, the IC50 in experiment [1] stood at 72 nM. For the molecule `Cc1ccc2ccc(-c3cc(C#N)cc(OC(F)(F)F)c3)cc2n1`, the IC50 in experiment [1] stood at 75 nM. As to `Cc1ccc2ccc(-c3cccc(OC(F)(F)F)c3)cc2n1`, the IC50 in experiment [1] is over 10000 nM.

`Cc1ccc2ccc(-c3cccc(CC#N)c3)cc2n1`: the IC50 in experiment [1] amounted to 430 nM. For `COCc1cccc(-c2ccc3ccc(C)nc3c2)c1`, in experiment [1], the IC50 is 5800 nM. Regarding `Cc1ccc2ccc(-c3cccc(CO)c3)cc2n1`, the IC50 in experiment [1] is 8700 nM. In the case of `CC(=O)c1cccc(-c2ccc3ccc(C)nc3c2)c1`, in experiment [1], the IC50 was 4760 nM. Still for that read-out and setting: the same measure for `Cc1ccc2ccc(-c3ccc(C#N)cc3)cc2n1`: over 10000 nM; for `CCS(=O)(=O)c1cc(C#N)cc(-c2ccc3ccc(C)nc3c2)c1`: 1090 nM; for `Cc1ccc2ccc(-c3ccccc3)cc2n1`: 9000 nM. For `Cc1cccc(C#Cc2ccccc2)n1`, the Activity in experiment [2] is 80%. In the case of `Cc1ccc2ccc(-c3ccccc3C#N)cc2n1`, the IC50 in experiment [1] worked out at 9800 nM. For `Cc1ccc2ccc(-c3cccc(C#N)c3)cc2n1`, in experiment [1], the IC50 came out at 7.7 nM. For the same molecule, the Ki in experiment [3] was found to be 72 nM.

On to `Cc1cc(C#N)cc(-c2ccc3ccc(C)nc3c2)c1`, for which, in experiment [1], the IC50 was 1.6 nM. For the molecule `COc1cccc(-c2ccc3ccc(C)nc3c2)c1`, in experiment [1], the IC50 came to 860 nM.

For `Cc1ccc2ccc(-c3cc(Cl)cc(C#N)c3)cc2n1`, the IC50 in experiment [1] worked out at 1.4 nM. With `Cc1ccc2ccc(-c3cc(C#N)cc(OCC(C)C)c3)cc2n1`, in experiment [1], the IC50 came out at 12000 nM. Still for that read-out and setting: the same measure for `Cc1ccc2ccc(-c3cccnc3)cc2n1`: 510 nM.

As to `Cc1ccc2ccc(-c3cccc(O)c3)cc2n1`, the IC50 in experiment [1] is 19000 nM.
